Test results published in patent publication US11180484B2, “Pyrazole derivatives as plasma kallikrein inhibitors” (KALVISTA PHARMACEUTICALS LIMITED, priority 2016, dated 2021).
In brackets after ≈: the same amount, converted by molar mass. Where two headings read alike, the source gives them in different places.

Assays:
[1] = Solubility in water and 0.1N HCl (aq); format: physicochemical; details: thermodynamic from solid, incubated at 1 mg/mL, 37° C.
Experimental: Solubility was determined in water and 0.1N HCl (aq). Test compounds were incubated at 1 mg/mL for 24 hrs at 37° C. on a shaking platform (500 rpm). Samples were taken at 1, 4 and 24 hrs and centrifuged at 15,000 g for 10 min. Test compound concentration in the supernatant was determined by LCMS against a standard curve.

[2] = Plasma protein binding (PPB), rapid equilibrium dialysis, human plasma; format: in vitro ADME; details: 5 μM test compound, dialysis 5 hrs at 37° C.
Experimental: The fraction unbound in plasma was determined using ThermoScientific™ Pierce™ Rapid Equilibrium Dialysis Technology (Single-Use plate with inserts, 8K MWCO). […] Reference samples from the non-dialysed plasma were taken before the incubation to enable an assessment of recovery. Test compound concentrations were determined in plasma and buffer compartments by LCMS against a calibration curve. […] Results are presented as percent plasma protein bound (% PPB).

[3] = Predicted plasma clearance (Clp), well-stirred model, human; format: in vitro ADME; details: percentage of hepatic blood flow
Experimental: (§1) The predicted plasma clearance (Clp) is calculated using the well-stirred model (Rowland M, Benet L Z, and Graham G G. Clearance concepts in pharmacokinetics. J Pharmacokinet Biopharm. (1973) 1:123-136.), one of several models that can be used to extrapolate the in vitro data. The model assumes instantaneous and complete mixing of drug within the liver and is a function of intrinsic clearance, hepatic blood flow and free fraction of drug in the blood. The predicted plasma clearance in mL/min/kg is presented as a percentage of hepatic blood flow (LBF).

[4] = molecular target: Human FXIa (Homo sapiens (Human), UniProt P03951); experiment: Determination of the % inhibition / IC50 for FXIa; format: biochemical; details: for IC50: 25° C., substrate Z-Gly-Pro-Arg-AFC; for inhibition at 40 µM: read-out: % Inhibition @ 40 μM (human FXIa)
Chain of Human FXIa (P03951 388-625): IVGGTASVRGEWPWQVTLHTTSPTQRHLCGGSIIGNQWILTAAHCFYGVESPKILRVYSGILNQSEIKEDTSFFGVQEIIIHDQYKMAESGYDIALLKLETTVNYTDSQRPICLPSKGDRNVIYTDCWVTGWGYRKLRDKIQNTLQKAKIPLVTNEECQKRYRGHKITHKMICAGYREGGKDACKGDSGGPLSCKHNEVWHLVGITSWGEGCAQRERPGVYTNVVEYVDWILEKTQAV
Chain of Human FXIa (P03951 19-387): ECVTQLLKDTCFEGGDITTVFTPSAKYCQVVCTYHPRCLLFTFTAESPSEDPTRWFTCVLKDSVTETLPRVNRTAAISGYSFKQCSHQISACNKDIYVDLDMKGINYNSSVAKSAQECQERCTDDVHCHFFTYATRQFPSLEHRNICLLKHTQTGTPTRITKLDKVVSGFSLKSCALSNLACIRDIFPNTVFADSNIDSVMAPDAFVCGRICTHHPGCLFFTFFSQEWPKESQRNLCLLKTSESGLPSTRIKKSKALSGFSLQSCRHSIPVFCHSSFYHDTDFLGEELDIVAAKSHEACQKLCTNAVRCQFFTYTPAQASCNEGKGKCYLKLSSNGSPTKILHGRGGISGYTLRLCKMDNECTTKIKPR
Experimental: FXIa inhibitory activity in vitro was determined using standard published methods (see e.g. Johansen et al., Int. J. Tiss. Reac. 1986, 8, 185; Shori et al., Biochem. Pharmacol., 1992, 43, 1209; Sturzebecher et al., Biol. Chem. Hoppe-Seyler, 1992, 373, 1025). […]

[5] = Plasma protein binding (PPB), rapid equilibrium dialysis, rat plasma; format: in vitro ADME; details: 5 μM test compound, dialysis 5 hrs at 37° C.
Experimental: The fraction unbound in plasma was determined using ThermoScientific™ Pierce™ Rapid Equilibrium Dialysis Technology (Single-Use plate with inserts, 8K MWCO). 5 μM test compound was spiked into human or rat plasma (300 μL) and dialysed against 146.5 mM phosphate buffer (500 μL) for 5 hrs at 37° C., shaking at 1200 rpm. Reference samples from the non-dialysed plasma were taken before the incubation to enable an assessment of recovery. Test compound concentrations were determined in plasma and buffer compartments by LCMS against a calibration curve. The fraction unbound in plasma was determined using standard methodology (Waters N J et al (2008) J Pharm Sci 97(10); 4586-95). Results are presented as percent plasma protein bound (% PPB).

[6] = molecular target: Human KLK1 (Homo sapiens (Human), UniProt P06870); experiment: Determination of the IC50 for KLK1; format: biochemical; details: 25° C., substrate H-DVal-Leu-Arg-AFC
Chain of Human KLK1 (P06870 25-262): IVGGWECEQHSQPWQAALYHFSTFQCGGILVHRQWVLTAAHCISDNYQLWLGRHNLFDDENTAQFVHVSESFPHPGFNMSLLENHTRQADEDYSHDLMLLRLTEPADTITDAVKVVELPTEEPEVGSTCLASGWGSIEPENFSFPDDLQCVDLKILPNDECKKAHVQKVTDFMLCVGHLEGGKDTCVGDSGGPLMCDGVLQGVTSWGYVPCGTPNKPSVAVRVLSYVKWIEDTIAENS
Experimental: (§2) Human KLK1 (Callbiochem) was incubated at 25° C. with the fluorogenic substrate H-DVal-Leu-Arg-AFC and various concentrations of the test compound. Residual enzyme activity (initial rate of reaction) was determined by measuring the change in […] at 410 nm and the IC50 value for the test compound was determined.

[7] = molecular target: Human Factor XIIa (Homo sapiens (Human), UniProt P00748); experiment: Factor XIIa inhibitory activity in vitro; format: biochemical; details: 25° C., substrate H-DPro-Phe-Arg-AFC; read-out: IC50 (human FXIIa)
Chain of Human Factor XIIa (P00748 373-615): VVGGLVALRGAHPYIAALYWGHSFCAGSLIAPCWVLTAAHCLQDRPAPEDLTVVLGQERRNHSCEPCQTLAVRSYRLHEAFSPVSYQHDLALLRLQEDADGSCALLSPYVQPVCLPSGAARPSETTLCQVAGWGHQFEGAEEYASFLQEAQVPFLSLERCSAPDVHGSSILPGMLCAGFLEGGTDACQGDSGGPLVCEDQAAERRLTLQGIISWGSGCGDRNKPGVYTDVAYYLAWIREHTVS
Experimental: as §2, with “Factor XIIa (Enzyme Research Laboratories)” for “KLK1 (Callbiochem)”, “H-DPro-Phe-Arg-AFC” for “H-DVal-Leu-Arg-AFC”

[8] = molecular target: T1, Human plasma kallikrein (Homo sapiens (Human), UniProt P03952); experiment: Determination of the IC50 for plasma kallikrein; format: biochemical; details: 25° C., substrate H-DPro-Phe-Arg-AFC; read-out: IC50 (human PKal)
T1 sequence (P03952 391-638): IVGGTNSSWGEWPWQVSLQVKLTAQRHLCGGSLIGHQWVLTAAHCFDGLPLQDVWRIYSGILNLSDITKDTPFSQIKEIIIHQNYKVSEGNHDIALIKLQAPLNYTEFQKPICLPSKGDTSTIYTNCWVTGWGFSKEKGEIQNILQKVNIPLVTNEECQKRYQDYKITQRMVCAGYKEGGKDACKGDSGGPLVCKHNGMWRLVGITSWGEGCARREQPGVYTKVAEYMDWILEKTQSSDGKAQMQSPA
T1 sequence (P03952 20-390): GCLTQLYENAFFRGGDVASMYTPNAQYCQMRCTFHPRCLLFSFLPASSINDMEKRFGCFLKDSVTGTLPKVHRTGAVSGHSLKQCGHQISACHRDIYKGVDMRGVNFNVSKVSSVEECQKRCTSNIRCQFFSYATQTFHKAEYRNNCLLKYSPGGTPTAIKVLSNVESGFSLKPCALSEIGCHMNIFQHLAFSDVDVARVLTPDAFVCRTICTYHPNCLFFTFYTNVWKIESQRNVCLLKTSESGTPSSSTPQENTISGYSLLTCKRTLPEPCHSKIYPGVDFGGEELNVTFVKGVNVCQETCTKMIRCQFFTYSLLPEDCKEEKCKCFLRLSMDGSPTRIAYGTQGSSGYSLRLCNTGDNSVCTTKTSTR
Experimental: as §2, with “plasma kallikrein (Protogen)” for “KLK1 (Callbiochem)”, “H-DPro-Phe-Arg-AFC” for “H-DVal-Leu-Arg-AFC”

[9] = Intrinsic clearance in rat liver microsomes; format: in vitro ADME; details: rat liver microsomes 0.5 mg/mL, 5 μM test compound, 37° C.; read-out: rat liver microsome (Clint μL/min/mg protein)
Experimental: (§3) Rat or human liver microsomes (0.5 mg/mL; Corning) were incubated with 5 μM test compound at 37° C. on a shaking platform (150 rpm). Samples were taken at 0, 6, 12, 18, 24 and 60 min and test compound concentrations were determined by LCMS against a calibration curve.

[10] = molecular target: T1, Human plasma kallikrein; experiment: Determination of the Ki for plasma kallikrein (mixed-model inhibition); format: biochemical; details: for Ki: human plasma kallikrein, mixed-model inhibition equation; for Alpha: parameter of the mixed-model equation indicating mechanism of inhibition
Experimental: Plasma kallikrein inhibitory activity in vitro was determined using standard published methods (e.g. Johansen et al., Int. J. Tiss. Reac. 1986, 8, 185; Shori et al., Biochem. Pharmacol., 1992, 43, 1209; Sturzebecher et al., Biol. Chem. Hoppe-Seyler, 1992, 373, 1025). […]. Residual enzyme activity (initial rate of reaction) was determined by measuring the change in fluorescence at 410 nm. The Ki value for the test compound was determined using the mixed-model inhibition equation (based on Equation 3.2 in: RA Copeland, Evaluation of Enzyme Inhibitors in Drug Discovery, Wiley 2005) in GraphPad Prism. The mixed model equation includes competitive, uncompetitive and noncompetitive inhibition as special cases and the parameter of Alpha to indicate mechanism of inhibition.

[11] = Pharmacokinetics following a single oral dose in male Sprague-Dawley rats; format: in vivo; details: rat, single po dose (nominal 10 mg/kg; actual dose per row in column Dose po), 10% DMSO/10% cremophor/80% SWFI, plasma
Experimental: Pharmacokinetic studies of the compounds in Table 13 were performed to assess the pharmacokinetics following a single oral dose in male Sprague-Dawley rats. Two rats were given a single po dose of 5 mL/kg of a nominal 2 mg/mL (10 mg/kg) composition of test compound in vehicle. Following dosing, blood samples were collected over a period of 24 hours. Sample times were 5, 15 and 30 minutes then 1, 2, 4, 6, 8 and 12 hours. Following collection, blood samples were centrifuged and the plasma fraction analysed for concentration of test compound by LCMS.

[12] = Predicted plasma clearance (Clp), well-stirred model, rat; format: in vitro ADME; details: percentage of hepatic blood flow
Experimental: as §1

[13] = molecular target: thrombin (Homo sapiens (Human), UniProt P00734); experiment: Determination of enzyme selectivity: thrombin; format: biochemical; details: substrate at Km concentration
Experimental: (§4) Human serine protease enzymes plasmin, thrombin and trypsin were assayed for enzymatic activity using an appropriate fluorogenic substrate. Protease activity was measured by monitoring the accumulation of liberated fluorescence from the substrate over 5 minutes. The linear rate of fluorescence increase per minute was expressed as percentage (%) activity. The Km for the cleavage of each substrate was determined by standard transformation of the Michaelis-Menten equation.

[14] = molecular target: plasmin (Homo sapiens (Human), UniProt P00747); experiment: Determination of enzyme selectivity: plasmin; format: biochemical; details: substrate at Km concentration
Chain of plasmin (P00747 581-810): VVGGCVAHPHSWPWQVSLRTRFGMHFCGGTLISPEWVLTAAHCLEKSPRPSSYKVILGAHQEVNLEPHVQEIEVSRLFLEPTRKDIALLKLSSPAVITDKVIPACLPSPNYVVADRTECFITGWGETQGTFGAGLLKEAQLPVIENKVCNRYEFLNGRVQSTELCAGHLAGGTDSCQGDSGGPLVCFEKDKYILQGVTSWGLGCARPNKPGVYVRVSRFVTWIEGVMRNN
Chain of plasmin (P00747 97-580): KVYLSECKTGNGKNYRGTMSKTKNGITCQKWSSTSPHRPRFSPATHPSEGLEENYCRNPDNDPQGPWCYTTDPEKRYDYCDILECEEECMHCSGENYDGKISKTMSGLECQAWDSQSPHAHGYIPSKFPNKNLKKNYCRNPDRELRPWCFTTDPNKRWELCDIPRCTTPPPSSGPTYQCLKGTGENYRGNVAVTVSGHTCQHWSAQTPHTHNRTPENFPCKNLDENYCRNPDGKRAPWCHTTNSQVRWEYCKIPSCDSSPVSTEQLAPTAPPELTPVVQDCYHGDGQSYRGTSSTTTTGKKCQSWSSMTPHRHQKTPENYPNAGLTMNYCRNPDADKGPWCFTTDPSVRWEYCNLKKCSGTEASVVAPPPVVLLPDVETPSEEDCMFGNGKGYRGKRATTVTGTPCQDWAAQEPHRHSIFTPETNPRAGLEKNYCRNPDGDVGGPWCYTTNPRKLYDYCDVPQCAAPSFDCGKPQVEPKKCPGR
Experimental: as §4

[15] = In vitro permeability, Caco-2 model for oral absorption; format: in vitro ADME; details: human, apical to basolateral, 50 μM test compound, 37° C.
Experimental: In vitro permeability was determined using the Caco-2 model for oral absorption. The methodology was adapted from standard published methods (Wang Z, Hop C. E., Leung K. H. and Pang J. (2000) J Mass Spectrom 35(1); 71-76). The Caco-2 monolayers were established in a Biocoat™ HTS fibrillar collagen 24 well multiwell insert system (1.0 μm, PET membrane, Corning 354803) in which 200,000 cells were seeded into each insert and maintained over 3 days before being utilised in the permeability assay. For the assay, 50 μM test compound is added to the apical side of the inserts and incubated for 1 hour at 37° C. on a shaking platform (120 rpm). Apical to basolateral transport was determined by measuring the test article in both compartments by LCMS following the 1 hour incubation. The integrity of the Caco-2 monolayers was confirmed by two methods, (i) comparison of pre- and post-experiment transepithelial electrical resistance (TEER) and, (ii) assessment of Lucifer Yellow flux.

[16] = molecular target: trypsin; experiment: Determination of enzyme selectivity: trypsin; format: biochemical, human; details: substrate at Km concentration
Experimental: as §4

[17] = Intrinsic clearance in human liver microsomes; format: in vitro ADME; details: human liver microsomes 0.5 mg/mL, 5 μM test compound, 37° C.; read-out: Human liver microsome (Clint μL/min/mg protein)
Experimental: as §3

[18] = simulated gastric fluid, 0.1N HCl (aq), read-out: Solubility 0.1N HCl (aq)
[19] = water, read-out: Solubility Water

SMILES | fraction unbound at 5 h, 5 μM [2] | Predicted in vivo human Clp (% LBF) [3] | IC50 [4] | fraction unbound at 5 h, 5 μM [5] | IC50 [6] | IC50 [7] | IC50 [8] | microsomal CLint at 5 μM [9] | Ki [10] | Alpha [10] | Cmax [11] | Tmax [11] | Predicted in vivo rat Clp (% LBF) [12] | Papp at 1 h, 50 μM [15] | inhibition at 40 µM ([4]; 40 μM test compound) | microsomal CLint at 5 μM [17] | solubility [1, 18] | solubility [1, 19] | other results
COCc1nn(Cc2ccc(Cn3ccccc3=O)cc2)cc1C(=O)NCc1nccc(OC)c1C [Example 22, N-[(4-methoxy-3-methylpyridin-2-yl)methyl]-3-(methoxymethyl)-1-({4-[(2-oxopyridin-1-yl)methyl]phenyl}methyl)pyrazole-4-carboxamide] | 0.08 | 7 % LBF | > 40000 nM | < 0.01 | > 40000 nM | > 40000 nM | 4.9 nM | 68 µL/min/mg | 1.9 nM | 29 | 1020 ng/mL | 1 h | <1.6 % LBF | – | – | – | 900 µg/mL (≈ 1850 µM) | 60 µg/mL (≈ 123 µM) | inhibition at 40 µM [4]: 5%
COCc1nn(Cc2ccc(Cn3ccccc3=O)cc2)cc1C(=O)NCc1ccccc1-n1cnnn1 [Example 74, 3-(methoxymethyl)-1-({4-[(2-oxopyridin-1-yl)methyl]phenyl}methyl)-N-{[2-(1,2,3,4-tetrazol-1-yl)phenyl]methyl}pyrazole-4-carboxamide] | – | – | > 40000 nM | – | > 40000 nM | > 40000 nM | 17.6 nM | – | – | – | – | – | – | 2 ×10⁻⁶ cm/s | 8% | – | – | – | IC50 [13]: > 40000 nM; IC50 [14]: > 40000 nM; IC50 [16]: > 40000 nM

More lines, main results first:

fraction unbound at 5 h, 5 μM [2] | Predicted in vivo human Clp (% LBF) [3] | IC50 [4] | fraction unbound at 5 h, 5 μM [5] | IC50 [6] | IC50 [7] | IC50 [8] | microsomal CLint at 5 μM [9] | Ki [10] | Alpha [10] | Cmax [11] | Tmax [11] | Predicted in vivo rat Clp (% LBF) [12] | Papp at 1 h, 50 μM [15] | inhibition at 40 µM ([4]; 40 μM test compound) | microsomal CLint at 5 μM [17] | SMILES | solubility [1, 18] | solubility [1, 19] | other results
0.03 | 3 % LBF | 235 nM | < 0.01 | > 40000 nM | > 40000 nM | 1.4 nM | 82 µL/min/mg | 0.17 nM | 4.2 | 845 ng/mL | 1.5 h | <2.0 % LBF | 28 ×10⁻⁶ cm/s | 100% | 29 µL/min/mg | COCc1nn(Cc2ccc(N3CCCC3)nc2)cc1C(=O)NCc1c(-n2cnnn2)ccc(OC)c1F [Example 77, N-{[2-fluoro-3-methoxy-6-(1,2,3,4-tetrazol-1-yl)phenyl]methyl}-3-(methoxymethyl)-1-{[6-(pyrrolidin-1-yl)pyridin-3-yl]methyl}pyrazole-4-carboxamide] | – | – | –
0.1 | 2 % LBF | 477 nM | 0.03 | > 40000 nM | > 40000 nM | 1.7 nM | 35 µL/min/mg | 0.28 nM | 2.78 | 981 ng/mL | 0.5 h | 3 % LBF | 16 ×10⁻⁶ cm/s | 99% | 4 µL/min/mg | COCc1nn(Cc2cnc(N3CCC(F)(F)C3)nc2)cc1C(=O)NCc1c(-n2cnnn2)ccc(OC)c1F [Example 86, 1-{[2-(3,3-Difluoropyrrolidin-1-yl)pyrimidin-5-yl]methyl}-N-{[2-fluoro-3-methoxy-6-(1,2,3,4-tetrazol-1-yl)phenyl]methyl}-3-(methoxymethyl)pyrazole-4-carboxamide] | 50 µg/mL (≈ 89.5 µM) | 1 µg/mL (≈ 1.79 µM) | –
0.16 | 14 % LBF | > 40000 nM | 0.13 | > 40000 nM | > 40000 nM | 1.1 nM | 94 µL/min/mg | 0.52 nM | 108 | – | – | 26 % LBF | 12 ×10⁻⁶ cm/s | – | 25 µL/min/mg | COCc1nn(Cc2ccc(Cn3ccccc3=O)cc2)cc1C(=O)NCc1c(F)cccc1-n1cnnn1 [Reference Example H, N-{[2-Fluoro-6-(1,2,3,4-tetrazol-1-yl)phenyl]methyl}-3-(methoxymethyl)-1-({4-[(2-oxopyridin-1-yl)methyl]phenyl}methyl)pyrazole-4-carboxamide, reference compound] | – | – | –
